3 molecules from ChEMBL document CHEMBL5143550, “Thiol- and Disulfide-Containing Vancomycin Derivatives Against Bacterial Resistance and Biofilm Formation” (2021) can be followed below.

≈ marks a conversion by molar mass, not a printed value. A value given as a limit tells only on which side of the number the result lay.

What all share (format): functional
The subject of test [1] is Enterococcus gallinarum. Put plainly: Antibacterial activity against VanC-resistant Enterococcus gallinarum ATCC 700221 assessed as inhibition of bacterial growth by standard broth microdilution susceptibility method.
Test [2] concerns Staphylococcus aureus. The experiment in a line: Antibacterial activity against Staphylococcus aureus ATCC 25923 assessed as inhibition of bacterial growth by standard broth microdilution susceptibility method.
In test [3] the test system is Staphylococcus aureus. The experiment in a line: Antibacterial activity against heterogenous vancomycin-intermediate Staphylococcus aureus ATCC NRS24 assessed as inhibition of bacterial growth by standard broth microdilution susceptibility method.
The test system of test [4] is Streptococcus pneumoniae. The experiment in a line: Antibacterial activity against […] assessed as inhibition of bacterial growth by standard broth microdilution susceptibility method.
Test [5] relates to Enterococcus faecalis. The experiment in a line: Antibiofilm activity against VanB-resistant Enterococcus faecalis ATCC 51299 assessed as inhibition of biofilm formation in BHIG medium incubated for 24 hrs by resazurin assay.
Test [6] relates to Enterococcus faecalis. Put plainly: Antibiofilm activity against VanB-resistant Enterococcus faecalis ATCC 51299 assessed as inhibition of biofilm formation by measuring decrease in RFU in BHIG medium incubated for 24 hrs by resazurin assay.
Test [7] has as its system Staphylococcus aureus. Put plainly: Antibacterial activity against methicillin-resistant Staphylococcus aureus ATCC 43300 assessed as inhibition of bacterial growth by standard broth microdilution susceptibility method.
A further test concerns Moraxella catarrhalis. Put plainly: Antibacterial activity against Moraxella catarrhalis ATCC 8193 assessed as inhibition of bacterial growth by standard broth microdilution susceptibility method.
The subject of test [8] is Enterococcus faecalis. Put plainly: Antibacterial activity against VanB-resistant Enterococcus faecalis ATCC 51299 assessed as inhibition of bacterial growth in BHIG medium incubated for 24 hrs by resazurin assay.
For test [9], the system named is Streptococcus pneumoniae. The experiment in a line: Potency index, ratio of vancomycin MIC to test compound MIC for antibacterial activity against […] assessed as inhibition of bacterial growth by standard broth microdilution susceptibility method.
Test [10] deals with Enterococcus faecalis. Put plainly: Antibacterial activity against VanB-resistant Enterococcus faecalis ATCC 51299 assessed as inhibition of colony formation in BHIG medium incubated for 24 hrs by resazurin assay.
Test [11] concerns Clostridioides difficile. The experiment in a line: Potency index, ratio of vancomycin MIC to test compound MIC for antibacterial activity against Clostridium difficile ATCC 43255 assessed as inhibition of bacterial growth by standard broth microdilution susceptibility method.
Test [12] has as its system Staphylococcus aureus. Put plainly: Antibacterial activity against vancomycin-intermediate Staphylococcus aureus ATCC NRS1 assessed as inhibition of bacterial growth by standard broth microdilution susceptibility method.
Test [13] relates to Enterococcus faecalis. Put plainly: Antibacterial activity against VanB-resistant Enterococcus faecalis ATCC 51299 assessed as inhibition of bacterial growth by standard broth microdilution susceptibility method.
The test system of test [14] is Clostridioides difficile. Put plainly: Antibacterial activity against Clostridium difficile ATCC 43255 assessed as inhibition of bacterial growth by standard broth microdilution susceptibility method.
The subject of test [15] is Enterococcus faecium. The experiment in a line: Antibacterial activity against VanA-resistant Enterococcus faecium MMX0485 assessed as inhibition of bacterial growth by standard broth microdilution susceptibility method.
The subject of test [16] is Staphylococcus aureus. The experiment in a line: Potency index, ratio of vancomycin MIC to test compound MIC for antibacterial activity against vancomycin-intermediate Staphylococcus aureus ATCC NRS1 assessed as inhibition of bacterial growth by standard broth microdilution susceptibility method.
Test [17] concerns Staphylococcus aureus. Put plainly: Potency index, ratio of vancomycin MIC to test compound MIC for antibacterial activity against heterogenous vancomycin-intermediate Staphylococcus aureus ATCC NRS24 assessed as inhibition of bacterial growth by standard broth microdilution susceptibility method.
Test [18] has as its system Enterococcus faecalis. The experiment in a line: Antibiofilm activity against VanB-resistant Enterococcus faecalis ATCC 51299 assessed as inhibition of biofilm formation in BHIG medium incubated for 24 hrs by resazurin assay relative to vancomycin.
Test [19] has as its system Enterococcus gallinarum. The experiment in a line: Potency index, ratio of vancomycin MIC to test compound MIC for antibacterial activity against VanC-resistant Enterococcus gallinarum ATCC 700221 assessed as inhibition of bacterial growth by standard broth microdilution susceptibility method.
Test [20] has as its system Enterococcus faecium. Put plainly: Potency index, ratio of vancomycin MIC to test compound MIC for antibacterial activity against VanA-resistant Enterococcus faecium MMX0485 assessed as inhibition of bacterial growth by standard broth microdilution susceptibility method.
Test [21] deals with Enterococcus faecalis. The experiment in a line: Potency index, ratio of vancomycin MIC to test compound MIC for antibacterial activity against VanB-resistant Enterococcus faecalis ATCC 51299 assessed as inhibition of bacterial growth by standard broth microdilution susceptibility method.

In the case of `CN[C@H](CC(C)C)C(=O)N[C@H]1C(=O)N[C@@H](CC(N)=O)C(=O)N[C@H]2C(=O)N[C@H]3C(=O)N[C@H](C(=O)N[C@H](C(=O)NCCCCCS)c4cc(O)cc(O)c4-c4cc3ccc4O)[C@H](O)c3ccc(c(Cl)c3)Oc3cc2cc(c3O[C@@H]2O[C@H](CO)[C@@H](O)[C@H](O)[C@H]2O[C@H]2C[C@](C)(N)[C@H](O)[C@H](C)O2)Oc2ccc(cc2Cl)[C@H]1O`, the MIC in the test on Enterococcus gallinarum [1] was 0.5 µg/mL (≈ 0.322 µM); with Staphylococcus aureus [2] it was 8 µg/mL (≈ 5.16 µM); in the test on Staphylococcus aureus [3], over 32 µg/mL; in the test with Streptococcus pneumoniae [4], at most 0.03 µg/mL; in the test on Staphylococcus aureus [7], 8 µg/mL (≈ 5.16 µM); in the test on Moraxella catarrhalis it was 4 µg/mL (≈ 2.58 µM). Besides, the MIC in the test with Staphylococcus aureus [12] was 2 µg/mL (≈ 1.29 µM); in the test with Enterococcus faecalis [13], 1 µg/mL (≈ 0.645 µM); with Clostridioides difficile [14] it was 0.06 µg/mL (≈ 0.0387 µM); in the test on Enterococcus faecium [15], 1 µg/mL (≈ 0.645 µM). In addition, the MBIC in the test with Enterococcus faecalis [5] is 32 µg/mL. Moreover, the “inhibition (INH)” value with Enterococcus faecalis [6] was determined as 99%; in the test with Enterococcus faecalis [8] it was 100%. Moreover, the Ratio with Streptococcus pneumoniae [9] and with Clostridioides difficile [11] was 16 throughout. Besides, the Activity in the test with Enterococcus faecalis [10] is 32 µg/mL.

Regarding `CN[C@H](CC(C)C)C(=O)N[C@H]1C(=O)N[C@@H](CC(N)=O)C(=O)N[C@H]2C(=O)N[C@H]3C(=O)N[C@H](C(=O)N[C@H](C(=O)NCCCCCNC(=O)CCCCC4CCSS4)c4cc(O)cc(O)c4-c4cc3ccc4O)[C@H](O)c3ccc(c(Cl)c3)Oc3cc2cc(c3O[C@@H]2O[C@H](CO)[C@@H](O)[C@H](O)[C@H]2O[C@H]2C[C@](C)(N)[C@H](O)[C@H](C)O2)Oc2ccc(cc2Cl)[C@H]1O` (stereo partly drawn), the MIC amounted to 8 µg/mL (≈ 4.65 µM) with Enterococcus gallinarum [1]; 2 µg/mL (≈ 1.16 µM) in the test with Staphylococcus aureus [2]; 32 µg/mL (≈ 18.6 µM) with Staphylococcus aureus [3]; 0.06 µg/mL (≈ 0.0348 µM) with Streptococcus pneumoniae [4]; 2 µg/mL (≈ 1.16 µM) in the test with Staphylococcus aureus [7]; 4 µg/mL (≈ 2.32 µM) in the test with Moraxella catarrhalis. Also, the MIC was 1 µg/mL (≈ 0.581 µM) in the test on Staphylococcus aureus [12], 4 µg/mL (≈ 2.32 µM) with Enterococcus faecalis [13], 0.06 µg/mL (≈ 0.0348 µM) in the test on Clostridioides difficile [14] and over 32 µg/mL with Enterococcus faecium [15]. Also, in the test with Enterococcus faecalis [5], the MBIC is 8 µg/mL. Further, the “inhibition (INH)” value in the test on Enterococcus faecalis [6] and with Enterococcus faecalis [8] was 100% in each case. For the same molecule, the Ratio in the test with Streptococcus pneumoniae [9], in the test with Clostridioides difficile [11], in the test on Staphylococcus aureus [16] and in the test with Staphylococcus aureus [17] was 4 each time. Moreover, the Activity in the test on Enterococcus faecalis [10] came out at 8 µg/mL.

For `CN[C@H](CC(C)C)C(=O)N[C@H]1C(=O)N[C@@H](CC(N)=O)C(=O)N[C@H]2C(=O)N[C@H]3C(=O)N[C@H](C(=O)N[C@H](C(=O)NCCSSCCNC(=O)CCSC(c4ccccc4)(c4ccccc4)c4ccccc4)c4cc(O)cc(O)c4-c4cc3ccc4O)[C@H](O)c3ccc(c(Cl)c3)Oc3cc2cc(c3O[C@@H]2O[C@H](CO)[C@@H](O)[C@H](O)[C@H]2O[C@H]2C[C@](C)(N)[C@H](O)[C@H](C)O2)Oc2ccc(cc2Cl)[C@H]1O`, the Ratio in the test with Enterococcus faecalis [18] was found to be 32; with Enterococcus gallinarum [19] it was 8; in the test on Staphylococcus aureus [16], 8; in the test on Enterococcus faecium [20], 8; with Enterococcus faecalis [21], 8; with Staphylococcus aureus [17] it was 8. Further, the MIC in the test with Enterococcus gallinarum [1] was 1 µg/mL (≈ 0.522 µM); in the test on Staphylococcus aureus [2] it was 8 µg/mL (≈ 4.18 µM); with Staphylococcus aureus [7], 4 µg/mL (≈ 2.09 µM); with Enterococcus faecalis [13] it was 2 µg/mL (≈ 1.04 µM). Further, the MBIC in the test on Enterococcus faecalis [5] was found to be 2 µg/mL. In addition, the results for the “inhibition (INH)” value in the test on Enterococcus faecalis [6] and in the test on Enterococcus faecalis [8] were 97% and 100%, respectively. Moreover, in the test on Enterococcus faecalis [10], the Activity stood at 2 µg/mL.
